Reference: ChEMBL document CHEMBL3352542, “Synthesis, biological evaluation and molecular modeling study of 2-(1,3,4-thiadiazolyl-thio and 4-methyl-thiazolyl-thio)-quinazolin-4-ones as a new class of DHFR inhibitors” (Bioorg Med Chem Lett, 2014)
pIC50: −log10 of the molar value. Active and inactive are the calls of the source. The rule behind the calls is not given here.

Columns and labels:
Dihydrofolate reductase = target: T1, Dihydrofolate reductase (Bos taurus, UniProt P00376); assay: Inhibition of bovine liver DHFR
T1 sequence (P00376 whole entry): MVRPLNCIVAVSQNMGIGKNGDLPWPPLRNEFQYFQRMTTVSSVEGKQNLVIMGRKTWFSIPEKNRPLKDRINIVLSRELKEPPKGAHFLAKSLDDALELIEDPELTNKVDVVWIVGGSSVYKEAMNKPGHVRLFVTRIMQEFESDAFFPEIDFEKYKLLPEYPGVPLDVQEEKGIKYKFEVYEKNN

Staphylococcus aureus [1] = assay: Antimicrobial activity against Staphylococcus aureus assessed as inhibition zone at 200 ug/disk after 24 hrs by disc-diffusion method; type: functional; conditions: read-out: IZ
Bacillus subtilis [2] = assay: Antimicrobial activity against Bacillus subtilis assessed as inhibition zone at 200 ug/disk after 24 hrs by disc-diffusion method; type: functional; conditions: read-out: IZ
Escherichia coli = assay: Antimicrobial activity against Escherichia coli assessed as inhibition zone at 200 ug/disk after 24 hrs by disc-diffusion method; type: functional; conditions: read-out: IZ
Pseudomonas aeruginosa = assay: Antimicrobial activity against Pseudomonas aeruginosa assessed as inhibition zone at 200 ug/disk after 24 hrs by disc-diffusion method; type: functional; conditions: read-out: IZ
Candida albicans = assay: Antimicrobial activity against Candida albicans assessed as inhibition zone at 200 ug/disk after 24 hrs by disc-diffusion method; type: functional; conditions: read-out: IZ
Staphylococcus aureus [3] = assay: Antimicrobial activity against Staphylococcus aureus assessed as inhibition of visible growth after 24 hrs by disc-diffusion method; type: functional, organism-based
Bacillus subtilis [4] = assay: Antimicrobial activity against Bacillus subtilis assessed as inhibition of visible growth after 24 hrs by disc-diffusion method; type: functional, organism-based
CCRF-CEM = assay: Growth inhibition of human CCRF-CEM cells at 10 uM after 48 hrs; type: functional
HL-60(TB) = assay: Growth inhibition of human HL-60(TB) cells at 10 uM after 48 hrs; type: functional
K562 = assay: Growth inhibition of human K562 cells at 10 uM after 48 hrs; type: functional
MOLT-4 = assay: Growth inhibition of human MOLT4 cells at 10 uM after 48 hrs; type: functional
RPMI-8226 = assay: (§1) Growth inhibition of human RPMI8226 cells at 10 uM after 48 hrs; type: functional
SR = assay: Growth inhibition of human SR cells at 10 uM after 48 hrs; type: functional
A549 = assay: Growth inhibition of human A549 cells at 10 uM after 48 hrs; type: functional
HOP-92 = assay: (§2) Growth inhibition of human HOP92 cells at 10 uM after 48 hrs; type: functional
NCI-H226 = assay: Growth inhibition of human NCI-H226 cells at 10 uM after 48 hrs; type: functional
NCI-H23 = assay: Growth inhibition of human NCI-H23 cells at 10 uM after 48 hrs; type: functional
NCI-H460 = assay: Growth inhibition of human NCI-H460 cells at 10 uM after 48 hrs; type: functional
NCI-H522 = assay: Growth inhibition of human NCI-H522 cells at 10 uM after 48 hrs; type: functional
COLO 205 = assay: Growth inhibition of human COLO205 cells at 10 uM after 48 hrs; type: functional
HCC 2998 = assay: Growth inhibition of human HCC2998 cells at 10 uM after 48 hrs; type: functional
HCT-116 = assay: Growth inhibition of human HCT116 cells at 10 uM after 48 hrs; type: functional
HCT-15 = assay: Growth inhibition of human HCT15 cells at 10 uM after 48 hrs; type: functional
HT-29 = assay: Growth inhibition of human HT-29 cells at 10 uM after 48 hrs; type: functional
KM12 = assay: Growth inhibition of human KM12 cells at 10 uM after 48 hrs; type: functional
SW-620 = assay: Growth inhibition of human SW620 cells at 10 uM after 48 hrs; type: functional
SF-268 = assay: Growth inhibition of human SF268 cells at 10 uM after 48 hrs; type: functional
SF-295 = assay: Growth inhibition of human SF295 cells at 10 uM after 48 hrs; type: functional
SF-539 = assay: Growth inhibition of human SF539 cells at 10 uM after 48 hrs; type: functional
SNB-19 = assay: Growth inhibition of human SNB19 cells at 10 uM after 48 hrs; type: functional
SNB-75 = assay: Growth inhibition of human SNB75 cells at 10 uM after 48 hrs; type: functional
U-251 = assay: Growth inhibition of human U251 cells at 10 uM after 48 hrs; type: functional
LOX IMVI = assay: Growth inhibition of human LOXIMVI cells at 10 uM after 48 hrs; type: functional
Malme-3M = assay: Growth inhibition of human MALME-3M cells at 10 uM after 48 hrs; type: functional
M14 = assay: Growth inhibition of human M14 cells at 10 uM after 48 hrs; type: functional
MDA-MB-435 = assay: Growth inhibition of human MDA-MB-435 cells at 10 uM after 48 hrs; type: functional
SK-MEL-5 = assay: Growth inhibition of human SK-MEL-5 cells at 10 uM after 48 hrs; type: functional
UACC-257 = assay: Growth inhibition of human UACC257 cells at 10 uM after 48 hrs; type: functional
UACC-62 = assay: Growth inhibition of human UACC62 cells at 10 uM after 48 hrs; type: functional
OVCAR-3 = assay: Growth inhibition of human OVCAR3 cells at 10 uM after 48 hrs; type: functional
OVCAR-4 = assay: Growth inhibition of human OVCAR4 cells at 10 uM after 48 hrs; type: functional
OVCAR-5 = assay: Growth inhibition of human OVCAR5 cells at 10 uM after 48 hrs; type: functional
OVCAR-8 = assay: Growth inhibition of human OVCAR8 cells at 10 uM after 48 hrs; type: functional
NCI/ADR-RES = assay: Growth inhibition of human NCI-ADR-RES cells at 10 uM after 48 hrs; type: functional
786-0 = assay: Growth inhibition of human 786-0 cells at 10 uM after 48 hrs; type: functional
A498 = assay: Growth inhibition of human A498 cells at 10 uM after 48 hrs; type: functional
ACHN = assay: Growth inhibition of human ACHN cells at 10 uM after 48 hrs; type: functional
CAKI-1 = assay: Growth inhibition of human CAKI-1 cells at 10 uM after 48 hrs; type: functional
RXF 393 = assay: Growth inhibition of human RXF393 cells at 10 uM after 48 hrs; type: functional
SN12C = assay: Growth inhibition of human SN12C cells at 10 uM after 48 hrs; type: functional
TK-10 = assay: Growth inhibition of human TK10 cells at 10 uM after 48 hrs; type: functional
UO-31 = assay: Growth inhibition of human UO31 cells at 10 uM after 48 hrs; type: functional
PC-3 = assay: Growth inhibition of human PC3 cells at 10 uM after 48 hrs; type: functional
MCF7 = assay: Growth inhibition of human MCF7 cells at 10 uM after 48 hrs; type: functional
MDA-MB-231 = assay: Growth inhibition of human MDA-MB-231 cells at 10 uM after 48 hrs; type: functional
Hs-578T = assay: Growth inhibition of human Hs 578T cells at 10 uM after 48 hrs; type: functional
BT-549 = assay: Growth inhibition of human BT549 cells at 10 uM after 48 hrs; type: functional
T47D = assay: Growth inhibition of human T47D cells at 10 uM after 48 hrs; type: functional
MDA-MB-468 = assay: Growth inhibition of human MDA-MB-468 cells at 10 uM after 48 hrs; type: functional
[5] = as §1; type: functional; conditions: RPMI-8226, 48 h, read-out: GI
[6] = as §2; type: functional; conditions: HOP-92, 48 h, read-out: GI

Cc1ccc2nc(Sc3sc(N)nc3C)n(-c3ccc(Oc4ccccc4)cc3)c(=O)c2c1
pIC50 (Dihydrofolate reductase): 5.70 | zone of inhibition at 200 µg/disc (Staphylococcus aureus [1]): 26 mm | zone of inhibition at 200 µg/disc (Bacillus subtilis [2]): 22 mm | zone of inhibition at 200 µg/disc (Escherichia coli): 14 mm | zone of inhibition at 200 µg/disc (Pseudomonas aeruginosa): 8 mm | zone of inhibition at 200 µg/disc (Candida albicans): 8 mm | Activity (Staphylococcus aureus [3]): Active | Activity (Bacillus subtilis [4]): Active | growth inhibition (GI) (CCRF-CEM): inactive | growth inhibition (GI) (HL-60(TB)): inactive | growth inhibition (GI) (K562): inactive | growth inhibition (GI) (MOLT-4): inactive | growth inhibition (GI) (RPMI-8226): inactive | growth inhibition (GI) (SR): inactive | growth inhibition (GI) (A549): inactive | growth inhibition (GI) (HOP-92): inactive | growth inhibition (GI) (NCI-H226): inactive | growth inhibition (GI) (NCI-H23): inactive | growth inhibition (GI) (NCI-H460): inactive | growth inhibition (GI) (NCI-H522): inactive | growth inhibition (GI) (COLO 205): inactive | growth inhibition (GI) (HCC 2998): inactive | growth inhibition (GI) (HCT-116): inactive | growth inhibition (GI) (HCT-15): inactive | growth inhibition (GI) (HT-29): inactive | growth inhibition (GI) (KM12): inactive | growth inhibition (GI) (SW-620): inactive | growth inhibition (GI) (SF-268): inactive | growth inhibition (GI) (SF-295): inactive | growth inhibition (GI) (SF-539): inactive | growth inhibition (GI) (SNB-19): inactive | growth inhibition (GI) (SNB-75): inactive | growth inhibition (GI) (U-251): inactive | growth inhibition (GI) (LOX IMVI): inactive | growth inhibition (GI) (Malme-3M): inactive | growth inhibition (GI) (M14): inactive | growth inhibition (GI) (MDA-MB-435): inactive | growth inhibition (GI) (SK-MEL-5): inactive | growth inhibition (GI) (UACC-257): inactive | growth inhibition (GI) (UACC-62): inactive | growth inhibition (GI) (OVCAR-3): inactive | growth inhibition (GI) (OVCAR-4): inactive | growth inhibition (GI) (OVCAR-5): inactive | growth inhibition (GI) (OVCAR-8): inactive | growth inhibition (GI) (NCI/ADR-RES): inactive | growth inhibition (GI) (786-0): inactive | growth inhibition (GI) (A498): inactive | growth inhibition (GI) (ACHN): inactive | growth inhibition (GI) (CAKI-1): inactive | growth inhibition (GI) (RXF 393): inactive | growth inhibition (GI) (SN12C): inactive | growth inhibition (GI) (TK-10): inactive | growth inhibition (GI) (UO-31): inactive | growth inhibition (GI) (PC-3): inactive | growth inhibition (GI) (MCF7): inactive | growth inhibition (GI) (MDA-MB-231): inactive | growth inhibition (GI) (Hs-578T): inactive | growth inhibition (GI) (BT-549): inactive | growth inhibition (GI) (T47D): inactive | growth inhibition (GI) (MDA-MB-468): inactive

Nc1nnc(Sc2nc3ccc(Cl)cc3c(=O)n2-c2ccccc2)s1
pIC50 (Dihydrofolate reductase): 5.22 | zone of inhibition at 200 µg/disc (Staphylococcus aureus [1]): 8 mm | zone of inhibition at 200 µg/disc (Bacillus subtilis [2]): 8 mm | zone of inhibition at 200 µg/disc (Escherichia coli): 8 mm | zone of inhibition at 200 µg/disc (Pseudomonas aeruginosa): 8 mm | zone of inhibition at 200 µg/disc (Candida albicans): 8 mm | inhibition of growth at 10 µM (HL-60(TB); HL-60, 48 h, read-out: GI): 21.5% | inhibition of growth at 10 µM [5]: 19.1% | inhibition of growth at 10 µM [6]: 28.6% | inhibition of growth at 10 µM (MCF7; MCF7, 48 h, read-out: GI): 16.4% | inhibition of growth at 10 µM (T47D; read-out: GI): 21.4%
